Entries after “also recorded” stand apart in the source; their conditions may differ.
Columns and labels:
[1] = tested on: BAX; assay: FRAP-GUV pore-forming activity of BAX, 10-kDa F-dextran; type: biochemical, mouse; parameters: unit not given here
Method: (§1) Briefly, GUVs were incubated with the proteins of interest over a period of time (Fig. 2c), followed by photobleaching within individual GUVs. A series of fluorescent images were collected over time after the photobleaching and then analyzed to yield the diffusion coefficients of Fluor molecules (including FITC-labeled 70-kDa, and Alexa-647-labeled 10-kDa probes) using the theoretical approach detailed in the “Methods” section. As Fluor molecules are homogeneously dispersed in the solution (outside and inside of GUVs) before the incubation with BAX and activators, it is reasonable to expect that the larger the induced pore area on the surface of a GUV, the greater the diffusion coefficient. Thus, the diffusion coefficient is directly related to the pore-forming activity of activated BAX. As the pore-forming activity is proportional to the concentration of BAX[18], we fixed the total amount of added BAX in all of the measurements below (see the “Methods” section).
(§2) Full-length BAX and variants were prepared as previously described[18],[22],[35]. Mouse BAX was cloned into pTYB1 vector (New England Biolabs, Inc.), resulting pTYB1-BAX construct. The pTYB1-BAX construct encoding a fusion protein of BAX with chitin-binding peptide was separated by a self-cleavable intein tag to obtain a full-length BAX. Wild-type BAX has two native cysteine residues at 62 and 126. Cysteine-free construct (C62S/C126S) was used to prepare single-cysteine BAX variants for conjugating fluorescence probes (e.g., BAX136C in Fig. 1d). Point mutations of recombinant BAX were generated using a QuikChange mutagenesis kit. Proteins were expressed in E. coli (ER2566) strain (New England Biolabs, Inc.) and purified without detergent. Bacterial cultures were grown at 37 °C in LB medium containing 0.1 g/L ampicillin to reach an OD600 of 1.0. BAX expression was induced by addition of 0.3 mM IPTG at 30 °C for 6−8 h. The cells were harvested by centrifugation and resuspended in ice-cold lysis buffer (20 mM Tris–HCl, pH 7.0, 500 mM NaCl and 1 mM PMSF). The resuspended pellet was sonicated on ice for 30 min, followed by centrifugation at 12,800 × g for 50 min. […] The resins were incubated in a pre-equilibrated buffer (20 mM sodium phosphate, pH 8.0, 100 mM NaCl, 60 mM dithiothreitol (DTT)) for 48 h. Proteins were eluted from column and further purified by a SEC using a HiLoad 16/60 Superdex 75 column (GE Healthcare) pre-equilibrated in PB buffer (20 mM sodium phosphate, pH 7.4, 100 mM NaCl). Purified proteins were confirmed by SDS–PAGE with Coomassie blue staining. Protein concentration was determined using absorption spectroscopy at 280 nm.
(§3) All lipids used were purchased from Avanti Polar Lipids. […] Texas Red 1,2-dihexadecanoyl-sn-glycero-3-phosphoethanolamine (TR-DPPE) (Invitrogen) of 0.05% was added to the lipid mixture for virtualization of GUV[18],[26],[27]. GUVs were prepared with the gel-assisted swelling on a polyvinyl alcohol (PVA) gel[39]. A 5% (w/w) solution of PVA (MW 145,000) was prepared by stirring PVA in ddH2O while heating at 90 °C. PVA solution was spread on a microscope coverslip (18 × 18 mm, Matsunami, Japan) and then dried at 50 °C. Lipid mixture (1 mg/mL) dissolved in chloroform were spread on the dry PVA film and placed under vacuum for 30 min to evaporate the solvent. Lipids were rehydrated for 1 h in PB buffer. The resulting GUVs were transferred to an Eppendorf tube using blunt tips.
(§4) FRAP measurements were performed as described previously. […] All reactions were at room temperature and the final volume was 200 μL.

[2] = tested on: BAX; assay: FRAP-GUV pore-forming activity of BAX, 70-kDa F-dextran;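 on FRAP pore-forming activity, average: unitless ratio D/D0 relative to diffusion coefficient after Triton X-100 disruption of GUVs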;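 on FRAP pore-forming activity: unitless ratio D/D0 relative to diffusion coefficient after Triton X-100 disruption of GUVs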; type: biochemical, mouse; parameters: FRAP pore-forming activity / FRAP pore-forming activity, average / p (FRAP-70k-p), Average: unit not given here; settings: for pore-forming activity / effect on BAX-induced membrane pores on GUV (in words): 10- and 70-kDa F-dextran, BAX 1 µM, BimBH3 2 µM, BCL-2 1 µM, ABT-199 30 µM, room temperature, Fig. 2c; for FRAP pore-forming activity, average / FRAP pore-forming activity: 70 kDa F-dextran; for FRAP pore-forming activity, average: mean of trials
Method: as §1, §2, §3, §4

[3] = 10 kDa F-dextran, mean of trials

## CC1(C)CCC(CN2CCN(c3ccc(C(=O)NS(=O)(=O)c4ccc(NCC5CCOCC5)c([N+](=O)[O-])c4)c(Oc4cnc5[nH]ccc5c4)c3)CC2)=C(c2ccc(Cl)cc2)C1 [ABT-199, Venetoclax, reference compound]
[1]; [3]
  FRAP pore-forming activity, average: 0.0002024
[1]; 10 kDa F-dextran, trial1
  FRAP pore-forming activity: 0.0000000
[1]; 10 kDa F-dextran, trial2
  FRAP pore-forming activity: 0.0001754
[1]; 10 kDa F-dextran, trial3
  FRAP pore-forming activity: 0.0000000
[1]; 10 kDa F-dextran, trial4
  FRAP pore-forming activity: 0.0001754
[1]; 10 kDa F-dextran, trial5
  FRAP pore-forming activity: 0.0000000
[1]; 10 kDa F-dextran, trial6
  FRAP pore-forming activity: 0.0000000
[1]; 10 kDa F-dextran, trial7
  FRAP pore-forming activity: 0.0001754
[1]; 10 kDa F-dextran, trial8
  FRAP pore-forming activity: 0.0008772
[1]; 10 kDa F-dextran, trial9
  FRAP pore-forming activity: 0.0007018
[1]; 10 kDa F-dextran, trial10
  FRAP pore-forming activity: 0.0000000
[1]; 10 kDa F-dextran, trial11
  FRAP pore-forming activity: 0.0001754
[1]; 10 kDa F-dextran, trial12
  FRAP pore-forming activity: 0.0001754
[1]; 10 kDa F-dextran, trial13
  FRAP pore-forming activity: 0.0001754
[2]
  pore-forming activity / effect on BAX-induced membrane pores on GUV (in words): BimBH3 is released from EEE to induce BAX activation and membrane pores
  FRAP pore-forming activity, average: 0.0000762
[2]; trial1
  FRAP pore-forming activity: 0.0000000
[2]; trial2
  FRAP pore-forming activity: 0.000165
[2]; trial3
  FRAP pore-forming activity: 0.0000000
[2]; trial4
  FRAP pore-forming activity: 0.000165
[2]; trial5
  FRAP pore-forming activity: 0.0000000
[2]; trial6
  FRAP pore-forming activity: 0.0000000
[2]; trial7
  FRAP pore-forming activity: 0.000165
[2]; trial8
  FRAP pore-forming activity: 0.0000000
[2]; trial9
  FRAP pore-forming activity: 0.0000000
[2]; trial10
  FRAP pore-forming activity: 0.0000000
[2]; trial11
  FRAP pore-forming activity: 0.000165
[2]; trial12
  FRAP pore-forming activity: 0.000165
[2]; trial13
  FRAP pore-forming activity: 0.000165

## BAX: full-length mouse BAX; in FRET the single-cysteine variant BAX136C labeled with AL488 [reference compound]
[1]; [3]
  FRAP pore-forming activity, average: 0.009408
[1]; 10 kDa F-dextran, trial1
  FRAP pore-forming activity: 0.008947
[1]; 10 kDa F-dextran, trial2
  FRAP pore-forming activity: 0.02404
[1]; 10 kDa F-dextran, trial3
  FRAP pore-forming activity: 0.006842
[1]; 10 kDa F-dextran, trial4
  FRAP pore-forming activity: 0.00807
[1]; 10 kDa F-dextran, trial5
  FRAP pore-forming activity: 0.01263
[1]; 10 kDa F-dextran, trial6
  FRAP pore-forming activity: 0.01719
[1]; 10 kDa F-dextran, trial7
  FRAP pore-forming activity: 0.004737
[1]; 10 kDa F-dextran, trial8
  FRAP pore-forming activity: 0.002982
[1]; 10 kDa F-dextran, trial9
  FRAP pore-forming activity: 0.002807
[1]; 10 kDa F-dextran, trial10
  FRAP pore-forming activity: 0.02035
[1]; 10 kDa F-dextran, trial11
  FRAP pore-forming activity: 0.007719
[1]; 10 kDa F-dextran, trial12
  FRAP pore-forming activity: 0.003684
[1]; 10 kDa F-dextran, trial13
  FRAP pore-forming activity: 0.01684
[1]; 10 kDa F-dextran, trial14
  FRAP pore-forming activity: 0.0007018
[1]; 10 kDa F-dextran, trial15
  FRAP pore-forming activity: 0.003509
[1]; 10 kDa F-dextran, trial16
  FRAP pore-forming activity: 0.009474
[1]; 10 kDa, Average of replicates (Count: BAX 16; BAX + BimBH3 19; BAX + BimBH3 + EEE 22; + EEE-PB 4; + EEE+ABT-199 5)
  FRAP pore-forming activity, average: 0.009408
[2]
  pore-forming activity / effect on BAX-induced membrane pores on GUV (in words): neither BAX nor EEE, in the absence of pro-apoptotic BimBH3, is able to induce large membrane pores on GUV
  FRAP pore-forming activity, average: 0.004165
[2]; trial1
  FRAP pore-forming activity: 0.0008251
[2]; trial2
  FRAP pore-forming activity: 0.006931
[2]; trial3
  FRAP pore-forming activity: 0.002475
[2]; trial4
  FRAP pore-forming activity: 0.000495
[2]; trial5
  FRAP pore-forming activity: 0.00132
[2]; trial6
  FRAP pore-forming activity: 0.001155
[2]; trial7
  FRAP pore-forming activity: 0.003135
[2]; trial8
  FRAP pore-forming activity: 0.001155
[2]; trial9
  FRAP pore-forming activity: 0.000495
[2]; trial10
  FRAP pore-forming activity: 0.0008251
[2]; trial11
  FRAP pore-forming activity: 0.00264
[2]; trial12
  FRAP pore-forming activity: 0.00231
[2]; trial13
  FRAP pore-forming activity: 0.002145
[2]; trial14
  FRAP pore-forming activity: 0.005776
[2]; trial15
  FRAP pore-forming activity: 0.000165
[2]; trial16
  FRAP pore-forming activity: 0.000495
[2]; trial17
  FRAP pore-forming activity: 0.01485
[2]; trial18
  FRAP pore-forming activity: 0.0132
[2]; trial19
  FRAP pore-forming activity: 0.01155
[2]; trial20
  FRAP pore-forming activity: 0.002805
[2]; trial21
  FRAP pore-forming activity: 0.01271
[2]; 70 kDa, Average of replicates (Count: BAX 21; BAX + BimBH3 16; BAX + BimBH3 + EEE 19; + EEE-PB 8; + EEE+ABT-199 5)
  p (FRAP-70k-p), Average: 0.004165

B1: EEE (protein)
chain: MAHAGRTGYDNREIVMKYIHYKLSQRGYEWDAGDVGAAPPGAAPAPGIFSSQPGHTPHPAASRDPVAREEPLQTPAAPGAAAGPALEPVPPVVHLTLRQAGDDFSRRYRRDFAEMSSQLHLTPFTARGRFATVVEELFRDGVNWGRIVAFFEFGGVMCVESVNREMSPLVDNIALWMTEYLNRHLHTWIQDNGGWDAFVELYGPSMRPLFDFSWLSL
modifications: Pacific Blue (maleimide) on the native cysteine 158; left off: His6, C-terminal, state not stated
[1]; [3]
  FRAP pore-forming activity, average: 0.001715
[1]; 10 kDa F-dextran, trial1
  FRAP pore-forming activity: 0.003333
[1]; 10 kDa F-dextran, trial2
  FRAP pore-forming activity: 0.0005263
[1]; 10 kDa F-dextran, trial3
  FRAP pore-forming activity: 0.001579
[1]; 10 kDa F-dextran, trial4
  FRAP pore-forming activity: 0.002807
[1]; 10 kDa F-dextran, trial5
  FRAP pore-forming activity: 0.002982
[1]; 10 kDa F-dextran, trial6
  FRAP pore-forming activity: 0.001754
[1]; 10 kDa F-dextran, trial7
  FRAP pore-forming activity: 0.0005263
[1]; 10 kDa F-dextran, trial8
  FRAP pore-forming activity: 0.002807
[1]; 10 kDa F-dextran, trial9
  FRAP pore-forming activity: 0.0005263
[1]; 10 kDa F-dextran, trial10
  FRAP pore-forming activity: 0.0005263
[1]; 10 kDa F-dextran, trial11
  FRAP pore-forming activity: 0.0005263
[1]; 10 kDa F-dextran, trial12
  FRAP pore-forming activity: 0.001053
[1]; 10 kDa F-dextran, trial13
  FRAP pore-forming activity: 0.0005263
[1]; 10 kDa F-dextran, trial14
  FRAP pore-forming activity: 0.002632
[1]; 10 kDa F-dextran, trial15
  FRAP pore-forming activity: 0.001053
[1]; 10 kDa F-dextran, trial16
  FRAP pore-forming activity: 0.002632
[1]; 10 kDa F-dextran, trial17
  FRAP pore-forming activity: 0.001404
[1]; 10 kDa F-dextran, trial18
  FRAP pore-forming activity: 0.003684
[2]
  pore-forming activity / effect on BAX-induced membrane pores on GUV (in words): neither BAX nor EEE, in the absence of pro-apoptotic BimBH3, is able to induce large membrane pores on GUV; also recorded: the pore-forming ability of BAX is clearly inhibited by the presence of EEE
  FRAP pore-forming activity, average: 0.0009376
[2]; trial1
  FRAP pore-forming activity: 0.000495
[2]; trial2
  FRAP pore-forming activity: 0.0006601
[2]; trial3
  FRAP pore-forming activity: 0.000495
[2]; trial4
  FRAP pore-forming activity: 0.0009901
[2]; trial5
  FRAP pore-forming activity: 0.0008251
[2]; trial6
  FRAP pore-forming activity: 0.000495
[2]; trial7
  FRAP pore-forming activity: 0.0008251
[2]; trial8
  FRAP pore-forming activity: 0.000495
[2]; trial9
  FRAP pore-forming activity: 0.00132
[2]; trial10
  FRAP pore-forming activity: 0.0008251
[2]; trial11
  FRAP pore-forming activity: 0.0008251
[2]; trial12
  FRAP pore-forming activity: 0.0008251
[2]; trial13
  FRAP pore-forming activity: 0.001155
[2]; trial14
  FRAP pore-forming activity: 0.0009901
[2]; trial15
  FRAP pore-forming activity: 0.002475
[2]; trial16
  FRAP pore-forming activity: 0.000495
[2]; trial17
  FRAP pore-forming activity: 0.0006601
[2]; trial18
  FRAP pore-forming activity: 0.000495
[2]; trial19
  FRAP pore-forming activity: 0.002475
[2]; trial20
  FRAP pore-forming activity: 0.0008251
[2]; trial21
  FRAP pore-forming activity: 0.0006601
[2]; trial22
  FRAP pore-forming activity: 0.00132

Source: publication PMC7665024, “Anti-apoptotic BCL-2 regulation by changes in dynamics of its long unstructured loop” (Communications Biology, 2020)
